Results: patent publication US10703740B2, “Substituted benzimidazoles, their preparation and their use as pharmaceuticals” (NEOMED Institute, priority 2015, dated 2020)

The compounds below were run against BRD4(BD1) (Homo sapiens (Human), UniProt O60885) (assay: In vitro bromodomain inhibition assay (AlphaLISA)). Conditions: His-tagged BRD4 BD1 200 nM, biotinylated H4-tetraacetyl peptide 200 nM.
Format: binding
Description: To measure activity of bromodomain inhibitors, a His-epitope tagged BRD4 BD149-170 is purchased from BPS Bioscience. BRD4 binding and inhibition is assessed by monitoring the engagement of biotinylated H4-tetraacetyl peptide (H4K5/8/12/16; AnaSpec #64989-025) with the target using the AlphaLISA technology (Perkin-Elmer). Specifically, in a 384 well OptiPlate, BRD4(BD1) (200 nM final) is pre-incubated with either DMSO (final 1.0% DMSO) or a compound dilution series in DMSO. All reagents are diluted in assay buffer containing 50 mM HEPES (pH 7.4), 100 mM NaCl, 0.1% (w/v) BSA, and 0.05% (w/v) CHAPS. After a 30 minute incubation at rt, H4 peptide is added (200 nM final) and the reaction is incubated an additional 30 minutes at rt. Alpha streptavidin donor beads and AlphaLISA nickel chelate acceptor beads are then added to a final concentration of 10 μg/mL each. After one hour, equilibration plates are read on an Envision instrument and IC50s calculated using a four parameter non-linear curve fit (results are shown in Table 1).
Work on `Cc1cc(-c2ccc3nc(C4CC4)n(CCOC(F)(F)F)c3c2)cn(C)c1=O` [Compound 2, 5-[2-cyclopropyl-3-[2-(trifluoromethoxy)ethyl]benzimidazol-5-yl]-1,3-dimethylpyridin-2-one] yielded an IC50 of 190 nM.

The compounds below were run on human C-Myc transcription in MV-4-11 cells (assay: Transcription of human C-Myc in human leukemic MV-4-11 cells (QuantiGene 2.0)). Conditions: Homo sapiens, MV4-11, 4 h, inhibition of C-Myc mRNA, 4 hours treatment, read-out: IC50 MV-4-11 Cell.
Format: cell-based
Description: The effect of compounds on transcription of human C-Myc gene is monitored in human B-myelomonocytic leukemia cell line MV-4-11 (from American Type Culture Collection (ATCC), Manassas, Va., USA) using QuantiGene 2.0 assay kit (Affymetrix, Santa Clara, Calif., USA).
Typically, 8,000 MV-4-11 cells are plated in sterile 96-well plates (Costar #3598 from Fisher Scientific Canada, Ottawa, Ontario, Canada) in Iscove's medium supplemented with 10% fetal bovine serum, glutamine (2 mM), and penicillin (100 I.U.) and streptomycin (100 μg/mL) (all from Wisent Inc., St. Bruno, Quebec, Canada). Compounds are dissolved in DMSO at 30 mM. A series of 1:3 dilutions are first made in DMSO, and further 1:100 dilutions are made in serum-containing cell culture media. The final concentration of DMSO is 0.1% in cell culture media. After cells are treated with various concentrations of test compound for 4 hours, cells are lysed using Quantigene 2.0 sample processing kit (# QS0100). C-Myc mRNA is detected using a QuantiGene 2.0 assay kit (# QS0009) with gene-specific probe to human C-Myc (# SA-50182) following the manufacturer's recommendations. Luminescene signals are read on Flexstation II microplate reader (Molecular Devices, Sunnyvale, Calif., USA).
In the case of `Cc1cc(-c2ccc3nc(C4CC4)n(CCOC(F)(F)F)c3c2)cn(C)c1=O` [Compound 2, 5-[2-cyclopropyl-3-[2-(trifluoromethoxy)ethyl]benzimidazol-5-yl]-1,3-dimethylpyridin-2-one], the IC50 is reported as 86 nM.
For `COCCn1c(C2CCC(F)(F)CC2)nc2ccc(-c3cc(C)c(=O)n(C)c3)cc21` [Compound 44, 5-(2-(4,4-difluorocyclohexyl)-1-(2-methoxyethyl)-1H-benzo[d]imidazol-6-yl)-1,3-dimethylpyridin-2(1H)-one], the IC50 was 98 nM.
In the case of `Cn1cc(-c2ccc3nc(C4CCOCC4)n(CCOC(F)(F)F)c3c2)cc(Cl)c1=O` [Compound 36, 3-chloro-1-methyl-5-[2-tetrahydropyran-4-yl-3-[2-(trifluoromethoxy)ethyl]benzimidazol-5-yl]pyridin-2-one], the IC50 is reported as 53 nM.
`COC1CC(c2nc3ccc(-c4cc(C)c(=O)n(C)c4)cc3n2CCOCC(F)(F)F)C1` (centres unmarked) [Compound 62, 5-[2-(3-methoxycyclobutyl)-1-(2-(2,2,2-trifluoroethoxy)ethyl)-1H-benzo[d]imidazol-6-yl]-1,3-dimethylpyridin-2(1H)-one] showed an IC50 of 21 nM.
In the case of `Cc1cc(-c2ccc3nc([C@@H]4CCCO4)n(CCOC(F)(F)F)c3c2)cn(C)c1=O` (stereo in doubt) [Compound 30b, 1,3-dimethyl-5-[2-tetrahydrofuran-2-yl-3-[2-(trifluoromethoxy)ethyl]benzimidazol-5-yl]pyridin-2-one], the IC50 is reported as 87 nM.
`Cc1cc(-c2ccc3nc(C4CC(F)(F)C4)n(CCOC(F)(F)F)c3c2)cn(C)c1=O` [Compound 27, 5-[2-(3,3-difluorocyclobutyl)-3-[2-(trifluoromethoxy)ethyl]benzimidazol-5-yl]-1,3-dimethylpyridin-2-one] showed an IC50 of 92 nM.
`COCCn1c(Cc2ccccc2)nc2ccc(-c3cc(C)c(=O)n(C)c3)cc21` [Compound 37, 5-(2-benzyl-1-(2-methoxyethyl)-1H-benzo[d]imidazol-6-yl)-1,3-dimethylpyridin-2(1H)-one] gave an IC50 of 490 nM.
For `COC[C@H](C)n1c(C2CCOCC2)nc2ccc(-c3cc(C)c(=O)n(C)c3)cc21` [Compound 18, 5-[3-[(1S)-2-methoxy-1-methylethyl]-2-tetrahydropyran-4-yl-benzimidazol-5-yl]-1,3-dimethylpyridin-2-one], the IC50 was 170 nM.
In the case of `COC[C@@H](C)n1c(C2CCC(F)(F)CC2)nc2ccc(-c3cc(C)c(=O)n(C)c3)cc21` [Compound 57, (R)-5-(2-(4,4-difluorocyclohexyl)-1-(1-methoxypropan-2-yl)-1H-benzo[d]imidazol-6-yl)-1,3-dimethylpyridin-2(1H)-one], the IC50 is reported as 72 nM.
Compound `Cc1cc(-c2ccc3nc(C4CCOCC4)n([C@H](C)COC(C)C)c3c2)cn(C)c1=O` [Compound 66, (R)-5-(1-(1-isopropoxypropan-2-yl)-2-(tetrahydro-2H-pyran-4-yl)-1H-benzo[d]imidazol-6-yl)-1,3-dimethylpyridin-2(1H)-one] has an IC50 of 18 nM.
Work on `CCO[C@@H](C)Cn1c(C2CCC(F)(F)CC2)nc2ccc(-c3cc(C)c(=O)n(C)c3)cc21` [Compound 55, (S)-5-(2-(4,4-difluorocyclohexyl)-1-(2-ethoxypropyl)-1H-benzo[d]imidazol-6-yl)-1,3-dimethylpyridin-2(1H)-one] yielded an IC50 of 53 nM.
For `Cc1cc(-c2ccc3nc(C4CCOCC4)n(CCC(F)(F)F)c3c2)cn(C)c1=O` [Compound 34, 1,3-dimethyl-5-[2-tetrahydropyran-4-yl-3-(3,3,3-trifluoropropyl)benzimidazol-5-yl]pyridin-2-one], the IC50 was 220 nM.
Work on `Cc1cc(-c2ccc3nc(C4(C)CCOCC4)n(CCOC(F)(F)F)c3c2)cn(C)c1=O` [Compound 31, 1,3-dimethyl-5-(2-(4-methyltetrahydro-2H-pyran-4-yl)-1-(2-(trifluoromethoxy)ethyl)-1H-benzo[d]imidazol-6-yl)pyridin-2(1H)-one] yielded an IC50 of 24 nM.
`Cc1cc(-c2ccc3nc(CC4CCOCC4)n(CCOC(F)(F)F)c3c2)cn(C)c1=O` [Compound 43, 1,3-dimethyl-5-(2-((tetrahydro-2H-pyran-4-yl)methyl)-1-(2-(trifluoromethoxy)ethyl)-1H-benzo[d]imidazol-6-yl)pyridin-2(1H)-one] gave an IC50 of 27 nM.
`CCOC[C@@H](C)n1c(C2CCOCC2)nc2ccc(-c3cc(C)c(=O)n(C)c3)cc21` [Compound 47, (R)-5-(1-(1-ethoxypropan-2-yl)-2-(tetrahydro-2H-pyran-4-yl)-1H-benzo[d]imidazol-6-yl)-1,3-dimethylpyridin-2(1H)-one] was tested, and the IC50 was 27 nM.
`COCCn1c(CC2CCOCC2)nc2ccc(-c3cc(C)c(=O)n(C)c3)cc21` [Compound 42, 5-(1-(2-methoxyethyl)-2-((tetrahydro-2H-pyran-4-yl)methyl)-1H-benzo[d]imidazol-6-yl)-1,3-dimethylpyridin-2(1H)-one] was tested, and the IC50 was 170 nM.
In the case of `Cc1cc(-c2ccc3nc(C4CCOCC4)n(CCOC(C)C)c3c2)cn(C)c1=O` [Compound 49, 5-(1-(2-isopropoxyethyl)-2-(tetrahydro-2H-pyran-4-yl)-1H-benzo[d]imidazole-6-yl)-1,3-dimethylpyridin-2(1H)-one], the IC50 is reported as 22 nM.
In the case of `Cc1cc(-c2ccc3nc(C4CCOCC4)n(CCOCC(F)(F)F)c3c2)cn(C)c1=O` [Compound 41, 1,3-dimethyl-5-(2-(tetrahydro-2H-pyran-4-yl)-1-(2-(2,2,2-trifluoroethoxy)ethyl)-1H-benzo[d]imidazol-6-yl)pyridin-2(1H)-one], the IC50 is reported as 23 nM.
Compound `CCO[C@H](C)Cn1c(C2CCOCC2)nc2ccc(-c3cc(C)c(=O)n(C)c3)cc21` [Compound 39, (R)-5-(1-(2-ethoxypropyl)-2-(tetrahydro-2H-pyran-4-yl)-1H-benzo[d]imidazol-6-yl)-1,3-dimethylpyridin-2(1H)-one] has an IC50 of 84 nM.
Work on `COCCn1c(C2CCCCC2)nc2ccc(-c3cc(C)c(=O)n(C)c3)cc21` [Compound 38, 5-(2-cyclohexyl-1-(2-methoxyethyl)-1H-benzo[d]imidazol-6-yl)-1,3-dimethylpyridin-2(1H)-one] yielded an IC50 of 240 nM.
Compound `Cc1cc(-c2ccc3nc(C4CCOCC4)n(CC(C)C(F)(F)F)c3c2)cn(C)c1=O` (centres unmarked) [Compound 46a, 1,3-dimethyl-5-(2-(tetrahydro-2H-pyran-4-yl)-1-(3,3,3-trifluoro-2-methylpropyl)-1H-benzo[d]imidazol-6-yl)pyridin-2(1H)-one] has an IC50 of 220 nM.
Work on `CNc1cc(-c2ccc3nc(C4CC4)n(CCOC(F)(F)F)c3c2)cn(C)c1=O` [Compound 20, 5-[2-cyclopropyl-3-[2-(trifluoromethoxy)ethyl]benzimidazol-5-yl]-1-methyl-3-(methylamino)pyridin-2-one] yielded an IC50 of 240 nM.
With `COC[C@@H](C)n1c(C2CC(F)(F)C2)nc2ccc(-c3cc(C)c(=O)n(C)c3)cc21` [Compound 51, (R)-5-(2-(3,3-difluorocyclobutyl)-1-(1-methoxypropan-2-yl)-1H-benzo[d]imidazol-6-yl)-1,3-dimethylpyridin-2(1H)-one] the IC50 was 62 nM.

Same assay, conditions: inhibition of C-Myc mRNA, 4 hours treatment, read-out: IC50 MV-4-11 Cell
In the case of `COC1CC(c2nc3ccc(-c4cc(C)c(=O)n(C)c4)cc3n2CCOC(C)C)C1` (centres unmarked) [Compound 65, 5-[1-(2-isopropoxyethyl)-2-(3-methoxycyclobutyl)-1H-benzo[d]imidazol-6-yl]-1,3-dimethylpyridin-2(1H)-one], the IC50 is reported as 25 nM.
Work on `COC1CC(c2nc3ccc(-c4cc(C)c(=O)n(C)c4)cc3n2CCOC(C)C)C1` (centres unmarked) [Compound 64, 5-[1-(2-isopropoxyethyl)-2-(3-methoxycyclobutyl)-1H-benzo[d]imidazol-6-yl]-1,3-dimethylpyridin-2(1H)-one] yielded an IC50 of 51 nM.
Compound `Cc1cc(-c2ccc3nc(C4CCOC4)n(CCOC(F)(F)F)c3c2)cn(C)c1=O` (single isomer, unassigned) [Compound 29a, 1,3-dimethyl-5-[2-tetrahydrofuran-3-yl-3-[2-(trifluoromethoxy)ethyl]benzimidazol-5-yl]pyridin-2-one] has an IC50 of 220 nM.
`Cc1cc(-c2ccc3nc(C4CCOC4)n(CCOC(F)(F)F)c3c2)cn(C)c1=O` (single isomer, unassigned) [Compound 29b, 1,3-dimethyl-5-[2-tetrahydrofuran-3-yl-3-[2-(trifluoromethoxy)ethyl]benzimidazol-5-yl]pyridin-2-one] gave an IC50 of 77 nM.
`COC(C)Cn1c(C2CCOCC2)nc2ccc(-c3cc(C)c(=O)n(C)c3)cc21` (single isomer, unassigned) [Compound 35a, 5-[3-(2-methoxypropyl)-2-tetrahydropyran-4-yl-benzimidazol-5-yl]-1,3-dimethyl pyridin-2-one] was tested, and the IC50 was 180 nM.
